# Laboratory results: the supplement of paper PMC11208160
# Assay: recombinant UMI read abundance after kanamycin selection (control-corrected) (log10(CPM+1)); higher = more efficient recombination; extreme values may be limits of the assay; sequences stand for … in AGTGCAGAGAAAATCGGCCAGTTTTCTCTGCCTGCAGTCCGCATGCCGTGGGACCCCTTGGGTTCTAACCTGTTGCCTAGATTTATGCAGCGGACTGCCTTTCTCCCAAAGTGATAAACCGG…AGGTTGGTTTCACT; site = the 11-nt donor
# Outline: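 Values, expressed as log10(CPM+1), derive from recombinant UMI counts converted to CPM, averaged across replicates and scaled by control-derived factors. Plating was with IPTG (0.07 mM) plus kanamycin or unselected, two replicates each. The screen pooled donor and donor-binding-loop pairs for the IS621 bridge recombinase in Escherichia coli.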
# 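Also: IS621 bridge recombinase in Escherichia coli cells against a fixed T5 target plasmid.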
row,Sequence,recombinant UMI read abundance (log10)
1,CGAGGACCATGGACCGGTTTTCCCGGTAATCCGTATTTGCG (site CGAGGACCTCA),0.00306
2,CGAGGACCATGGACCGGTTTTCCCGGTAATCCGTATTTGCG (site CGAGGACCTCC),0.00697
3,CGAGGACCATGGACCGGTTTTCCCGGTAATCCGTATTTGCG (site CGAGGACCTCG),0
4,CGAGGACCATGGACCGGTTTTCCCGGTAATCCGTATTTGCG (site CGAGGACCTCT),0.00945
5,CGAGGACCATGGACCGGTTTTCCCGGTAATCCGTATTTGGA (site CGAGGACCTAC),0
6,CGAGGACCATGGACCGGTTTTCCCGGTAATCCGTATTTGGA (site CGAGGACCTCC),0.0127
7,CGAGGACCATGGACCGGTTTTCCCGGTAATCCGTATTTGGA (site CGAGGACCTGC),0
8,CGAGGACCATGGACCGGTTTTCCCGGTAATCCGTATTTGGA (site CGAGGACCTTC),0.0145
9,CGAGGATCATGGACCGGTTTTCCCGGTAATCCGTATTTGGG (site CGAGGAACTCC),0.0163
10,CGAGGATCATGGACCGGTTTTCCCGGTAATCCGTATTTGGG (site CGAGGACCTCC),0.00347
11,CGAGGATCATGGACCGGTTTTCCCGGTAATCCGTATTTGGG (site CGAGGAGCTCC),0
12,CGAGGATCATGGACCGGTTTTCCCGGTAATCCGTATTTGGG (site CGAGGATCTCC),1.15
13,CGAGTATCATGGACCGGTTTTCCCGGTAATCCGTATTTGAT (site CGAGTATCTAT),2.89
14,CGAGTATCATGGACCGGTTTTCCCGGTAATCCGTATTTGAT (site CTAGTATCTGT),0
15,CGATAATCATGGACCGGTTTTCCCGGTAATCCGTATTTGCG (site CGATAATCTCG),3.34
16,CGATAATCATGGACCGGTTTTCCCGGTAATCCGTATTTGCG (site CGATCATCTAG),0
17,CGATCAACATGGACCGGTTTTCCCGGTAATCCGTATTTGTT (site CGATCAACTAA),0.0564
18,CGATCAACATGGACCGGTTTTCCCGGTAATCCGTATTTGTT (site CGATCCACTAA),0.0118
19,CGATCAACATGGACCGGTTTTCCCGGTAATCCGTATTTGTT (site CGATCGACTAA),0.00905
20,CGATCAACATGGACCGGTTTTCCCGGTAATCCGTATTTGTT (site CGATCTACTAA),0.00984
21,CGATCACCATGGACCGGTTTTCCCGGTAATCCGTATTTGAT (site CGATCACCTAT),0.00371
22,CGATCACCATGGACCGGTTTTCCCGGTAATCCGTATTTGAT (site CGATCATCTAG),0
23,CGATCATCATGGACCGGTTTTCCCGGTAATCCGTATTTGCT (site ACATCATCTAG),1.28
24,CGATCATCATGGACCGGTTTTCCCGGTAATCCGTATTTGCT (site AGAGCATCTAG),0
25,CGATCATCATGGACCGGTTTTCCCGGTAATCCGTATTTGCT (site AGATCAGCTAG),0.00274
26,CGATCATCATGGACCGGTTTTCCCGGTAATCCGTATTTGCT (site AGATCATCTAA),0.00548

row,Sequence,recombinant UMI read abundance (log10)
1,CGATCATCATGGACCGGTTTTCCCGGTAATCCGTATTTGCT (site AGATCATCTAG),2.17
2,CGATCATCATGGACCGGTTTTCCCGGTAATCCGTATTTGCT (site AGATCATCTTG),0
3,CGATCATCATGGACCGGTTTTCCCGGTAATCCGTATTTGCT (site AGATCTTCTAG),0
4,CGATCATCATGGACCGGTTTTCCCGGTAATCCGTATTTGCT (site AGATTATCTAG),0.017
5,CGATCATCATGGACCGGTTTTCCCGGTAATCCGTATTTGCT (site AGGTCATCTAG),0
6,CGATCATCATGGACCGGTTTTCCCGGTAATCCGTATTTGCT (site CAAACATCTAG),1.6
7,CGATCATCATGGACCGGTTTTCCCGGTAATCCGTATTTGCT (site CAATCACCTAG),0
8,CGATCATCATGGACCGGTTTTCCCGGTAATCCGTATTTGCT (site CAATCATCTAG),1.62
9,CGATCATCATGGACCGGTTTTCCCGGTAATCCGTATTTGCT (site CAATCATCTAT),0
10,CGATCATCATGGACCGGTTTTCCCGGTAATCCGTATTTGCT (site CAATCATCTGG),0
11,CGATCATCATGGACCGGTTTTCCCGGTAATCCGTATTTGCT (site CAATCGTCTAG),0.00456
12,CGATCATCATGGACCGGTTTTCCCGGTAATCCGTATTTGCT (site CAATGATCTAG),0
13,CGATCATCATGGACCGGTTTTCCCGGTAATCCGTATTTGCT (site CATTCATCTAG),1.44
14,CGATCATCATGGACCGGTTTTCCCGGTAATCCGTATTTGCT (site CCAGCATCTAG),0.0355
15,CGATCATCATGGACCGGTTTTCCCGGTAATCCGTATTTGCT (site CCATCAGCTAG),0
16,CGATCATCATGGACCGGTTTTCCCGGTAATCCGTATTTGCT (site CCATCATCTAA),0
17,CGATCATCATGGACCGGTTTTCCCGGTAATCCGTATTTGCT (site CCATCATCTAG),0.987
18,CGATCATCATGGACCGGTTTTCCCGGTAATCCGTATTTGCT (site CCATCATCTTG),0
19,CGATCATCATGGACCGGTTTTCCCGGTAATCCGTATTTGCT (site CCATCTTCTAG),0
20,CGATCATCATGGACCGGTTTTCCCGGTAATCCGTATTTGCT (site CCATTATCTAG),0
21,CGATCATCATGGACCGGTTTTCCCGGTAATCCGTATTTGCT (site CCGTCATCTAG),0.747
22,CGATCATCATGGACCGGTTTTCCCGGTAATCCGTATTTGCT (site CGAACACCTAG),0
23,CGATCATCATGGACCGGTTTTCCCGGTAATCCGTATTTGCT (site CGAACATCTAG),0.278
24,CGATCATCATGGACCGGTTTTCCCGGTAATCCGTATTTGCT (site CGAACATCTAT),0.00401
25,CGATCATCATGGACCGGTTTTCCCGGTAATCCGTATTTGCT (site CGAACATCTGG),0
26,CGATCATCATGGACCGGTTTTCCCGGTAATCCGTATTTGCT (site CGAACGTCTAG),0.00334
